Reference: ChEMBL document CHEMBL5260845, “Flavone-based arylamides as potential anticancers: Design, synthesis and in vitro cell-based/cell-free evaluations” (2020)
Calls of active or inactive are those of the source. The rule behind the calls is not given here.

Legend:
Renal cancer cell line = assay: Antiproliferative activity against human renal cancer cells assessed as cell growth inhibition at 10 uM by SRB assay relative to control; assay type: functional
[1] = molecular target: Serine/threonine-protein kinase pim-1 (Homo sapiens) (UniProt P11309); assay: Inhibition of PIM1 (unknown origin) at 10 uM by biochemical hotspot kinase assay relative to control
HL-60 [2] = assay: Antiproliferative activity against human HL-60 cells assessed as cell growth inhibition at 10 uM by SRB assay relative to control; assay type: functional
[3] = molecular target: Rho-associated protein kinase 1 (Homo sapiens) (UniProt Q13464); assay: Inhibition of ROCK1 (unknown origin) at 10 uM by biochemical hotspot kinase assay
OVCAR-5 = assay: Antiproliferative activity against human OVCAR-5 cells assessed as inhibition of cell growth at 10 uM by SRB assay relative to control; assay type: functional
HOP-92 [4] = assay: Antiproliferative activity against human HOP-92 cells assessed as cell growth inhibition at 10 uM by SRB assay; assay type: functional, cell-based
HT-29 [5] = assay: Induction of cell cycle arrest in human HT-29 cells assessed as reduction in accumulation of cells at S phase at 2.5 to 10 uM incubated for 24 hrs by PI staining based analysis; assay type: functional; conditions: dose 2.5-10 µM
[6] = molecular target: Proto-oncogene tyrosine-protein kinase receptor Ret (Homo sapiens) (UniProt P07949); assay: Inhibition of RET (unknown origin) at 10 uM by biochemical hotspot kinase assay
RPMI-8226 = assay: Antiproliferative activity against human RPMI-8226 cells assessed as cell growth inhibition at 10 uM by SRB assay relative to control; assay type: functional
HT-29 [7] = assay: Induction of cell cycle arrest in human HT-29 cells assessed as accumulation of cells at G1 phase at 2.5 uM incubated for 24 hrs by PI staining based analysis (reference value: 40.3%); assay type: functional
[8] = molecular target: Fibroblast growth factor receptor 2 (Homo sapiens) (UniProt P21802); assay: Inhibition of FGFR2 (unknown origin) at 10 uM by biochemical hotspot kinase assay
[9] = molecular target: Aurora kinase A (Homo sapiens) (UniProt O14965); assay: Inhibition of Aurora A (unknown origin) at 10 uM by biochemical hotspot kinase assay
[10] = molecular target: Fibroblast growth factor receptor 3 (Homo sapiens) (UniProt P22607); assay: Inhibition of FGFR3 (unknown origin) at 10 uM by biochemical hotspot kinase assay relative to control
HT-29 [11] = assay: Induction of cell cycle arrest in human HT-29 cells assessed as accumulation of cells at G1 phase at 5 uM incubated for 24 hrs by PI staining based analysis (reference value: 40.3%); assay type: functional
[12] = molecular target: Mitogen-activated protein kinase 1 (Homo sapiens) (UniProt P28482); assay: Inhibition of ERK2 (unknown origin) at 10 uM by biochemical hotspot kinase assay relative to control
[13] = molecular target: Serine/threonine-protein kinase 17A (Homo sapiens) (UniProt Q9UEE5); assay: Inhibition of DRAK1 (unknown origin) at 10 uM by biochemical hotspot kinase assay relative to control
[14] = molecular target: Mitogen-activated protein kinase 3 (Homo sapiens) (UniProt P27361); assay: Inhibition of ERK1 (unknown origin) at 10 uM by biochemical hotspot kinase assay
[15] = molecular target: Serine/threonine-protein kinase PAK 2 (Homo sapiens) (UniProt Q13177); assay: Inhibition of PAK2 (unknown origin) at 10 uM by biochemical hotspot kinase assay
[16] = molecular target: Tyrosine-protein kinase Lck (Homo sapiens) (UniProt P06239); assay: Inhibition of LCK (unknown origin) at 10 uM by biochemical hotspot kinase assay relative to control
[17] = molecular target: Calcium/calmodulin-dependent protein kinase type II subunit beta (Homo sapiens) (UniProt Q13554); assay: Inhibition of CAMK2B (unknown origin) at 10 uM by biochemical hotspot kinase assay relative to control
NCI-H322M = assay: Antiproliferative activity against human NCI-H322M cells assessed as cell growth inhibition at 10 uM by SRB assay; assay type: functional, cell-based
EKVX = assay: Antiproliferative activity against human EKVX cells assessed as cell growth inhibition at 10 uM by SRB assay; assay type: functional
[18] = molecular target: Protein kinase C alpha type (Homo sapiens) (UniProt P17252); assay: Inhibition of PKCa (unknown origin) at 10 uM by biochemical hotspot kinase assay
[19] = molecular target: High affinity nerve growth factor receptor (Homo sapiens) (UniProt P04629); assay: Inhibition of TrkA (unknown origin) at 10 uM by biochemical hotspot kinase assay
[20] = molecular target: Epidermal growth factor receptor (Homo sapiens) (UniProt P00533); assay: Inhibition of EGFR (unknown origin) at 10 uM by biochemical hotspot kinase assay
Lung cancer cell line = assay: Antiproliferative activity against human lung cancer cells assessed as cell growth inhibition at 10 uM by SRB assay relative to control; assay type: functional
HL-60 [21] = assay: Antiproliferative activity against human HL-60 cells assessed as cell growth inhibition at 10 uM by SRB assay; assay type: functional, cell-based
MOLT-4 = assay: Antiproliferative activity against human MOLT-4 cells assessed as cell growth inhibition at 10 uM by SRB assay; assay type: functional, cell-based
[22] = molecular target: Hepatocyte growth factor receptor (Homo sapiens) (UniProt P08581); assay: Inhibition of c-MET (unknown origin) at 10 uM by biochemical hotspot kinase assay relative to control
[23] = molecular target: RAC-alpha serine/threonine-protein kinase (Homo sapiens) (UniProt P31749); assay: Inhibition of AKT1 (unknown origin) at 10 uM by biochemical hotspot kinase assay relative to control
[24] = molecular target: Serine/threonine-protein kinase 3 (Homo sapiens) (UniProt Q13188); assay: Inhibition of MST2 (unknown origin) at 10 uM by biochemical hotspot kinase assay relative to control
[25] = molecular target: Wee1-like protein kinase (Homo sapiens) (UniProt P30291); assay: Inhibition of WEE1 (unknown origin) at 10 uM by biochemical hotspot kinase assay
ACHN = assay: Antiproliferative activity against human ACHN cells assessed as inhibition of cell growth at 10 uM by SRB assay relative to control; assay type: functional; conditions: pooled result: one value given for 2 cell lines, strains, targets or settings
[26] = molecular target: Mitogen-activated protein kinase kinase kinase 8 (Homo sapiens) (UniProt P41279); assay: Inhibition of MAP3K8 (unknown origin) at 10 uM by biochemical hotspot kinase assay relative to control
T47D = assay: Antiproliferative activity against estrogen receptor positive human T47D cells assessed as inhibition of cell growth at 10 uM by SRB assay; assay type: functional, cell-based
HOP-92 [27] = assay: Antiproliferative activity against human HOP-92 cells assessed as cell growth inhibition at 10 uM by SRB assay relative to control; assay type: functional
TK-10 = assay: Antiproliferative activity against human TK-10 cells assessed as inhibition of cell growth at 10 uM by SRB assay relative to control; assay type: functional
NCI-H460 = assay: Antiproliferative activity against human NCI-H460 cells assessed as cell growth inhibition at 10 uM by SRB assay relative to control; assay type: functional
HOP-62 = assay: Antiproliferative activity against human HOP-62 cells assessed as cell growth inhibition at 10 uM by SRB assay relative to control; assay type: functional

Chain of RAC-alpha serine/threonine-protein kinase (Homo sapiens) (P31749 whole entry): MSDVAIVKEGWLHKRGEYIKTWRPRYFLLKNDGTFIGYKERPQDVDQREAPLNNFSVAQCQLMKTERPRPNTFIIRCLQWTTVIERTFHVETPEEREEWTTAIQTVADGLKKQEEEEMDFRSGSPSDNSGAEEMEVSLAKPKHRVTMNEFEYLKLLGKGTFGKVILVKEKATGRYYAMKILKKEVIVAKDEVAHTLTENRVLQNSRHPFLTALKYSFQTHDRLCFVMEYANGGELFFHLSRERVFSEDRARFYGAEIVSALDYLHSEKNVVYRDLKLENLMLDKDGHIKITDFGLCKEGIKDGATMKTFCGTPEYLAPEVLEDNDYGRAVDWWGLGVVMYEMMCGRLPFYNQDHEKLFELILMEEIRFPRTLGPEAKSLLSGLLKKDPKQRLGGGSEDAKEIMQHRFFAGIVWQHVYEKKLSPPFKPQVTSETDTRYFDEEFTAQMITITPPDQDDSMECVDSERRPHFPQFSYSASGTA
Chain of Proto-oncogene tyrosine-protein kinase receptor Ret (Homo sapiens) (P07949 whole entry): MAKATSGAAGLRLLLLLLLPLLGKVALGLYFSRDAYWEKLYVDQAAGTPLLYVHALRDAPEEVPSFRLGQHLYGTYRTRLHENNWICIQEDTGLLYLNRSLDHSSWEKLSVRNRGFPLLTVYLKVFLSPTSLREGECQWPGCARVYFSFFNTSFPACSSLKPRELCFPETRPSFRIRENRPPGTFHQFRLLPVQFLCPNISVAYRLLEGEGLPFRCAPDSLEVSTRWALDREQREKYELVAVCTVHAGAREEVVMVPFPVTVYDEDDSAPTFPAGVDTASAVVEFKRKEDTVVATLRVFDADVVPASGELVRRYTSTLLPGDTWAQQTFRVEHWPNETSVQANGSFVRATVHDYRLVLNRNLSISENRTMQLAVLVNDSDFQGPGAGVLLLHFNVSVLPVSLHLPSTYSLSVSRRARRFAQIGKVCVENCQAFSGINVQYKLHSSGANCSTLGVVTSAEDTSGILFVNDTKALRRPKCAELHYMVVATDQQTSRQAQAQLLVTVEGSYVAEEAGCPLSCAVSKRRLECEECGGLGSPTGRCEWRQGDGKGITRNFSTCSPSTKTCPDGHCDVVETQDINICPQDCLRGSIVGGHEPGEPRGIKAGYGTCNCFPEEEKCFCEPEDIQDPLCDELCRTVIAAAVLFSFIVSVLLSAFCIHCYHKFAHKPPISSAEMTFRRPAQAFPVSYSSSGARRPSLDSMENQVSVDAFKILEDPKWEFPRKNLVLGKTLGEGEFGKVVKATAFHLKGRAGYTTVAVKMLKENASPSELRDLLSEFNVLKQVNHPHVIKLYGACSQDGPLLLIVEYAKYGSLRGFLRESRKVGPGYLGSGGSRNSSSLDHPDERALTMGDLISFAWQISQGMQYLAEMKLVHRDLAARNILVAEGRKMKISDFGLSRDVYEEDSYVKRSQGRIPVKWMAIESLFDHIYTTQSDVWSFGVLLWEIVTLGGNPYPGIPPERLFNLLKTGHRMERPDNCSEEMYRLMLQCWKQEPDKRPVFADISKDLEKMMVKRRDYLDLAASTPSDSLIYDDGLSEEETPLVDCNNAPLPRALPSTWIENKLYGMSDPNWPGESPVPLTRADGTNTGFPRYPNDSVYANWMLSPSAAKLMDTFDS
Chain of Mitogen-activated protein kinase 1 (Homo sapiens) (P28482 whole entry): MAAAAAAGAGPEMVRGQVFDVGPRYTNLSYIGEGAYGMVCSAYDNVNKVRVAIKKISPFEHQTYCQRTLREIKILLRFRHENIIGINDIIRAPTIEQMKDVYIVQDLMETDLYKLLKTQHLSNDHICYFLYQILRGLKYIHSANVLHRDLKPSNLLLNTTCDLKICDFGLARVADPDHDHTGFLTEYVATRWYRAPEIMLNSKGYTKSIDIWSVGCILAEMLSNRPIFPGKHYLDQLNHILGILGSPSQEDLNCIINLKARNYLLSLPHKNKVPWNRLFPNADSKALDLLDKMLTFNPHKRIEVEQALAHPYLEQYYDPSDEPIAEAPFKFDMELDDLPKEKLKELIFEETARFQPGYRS
Chain of Mitogen-activated protein kinase kinase kinase 8 (Homo sapiens) (P41279 whole entry): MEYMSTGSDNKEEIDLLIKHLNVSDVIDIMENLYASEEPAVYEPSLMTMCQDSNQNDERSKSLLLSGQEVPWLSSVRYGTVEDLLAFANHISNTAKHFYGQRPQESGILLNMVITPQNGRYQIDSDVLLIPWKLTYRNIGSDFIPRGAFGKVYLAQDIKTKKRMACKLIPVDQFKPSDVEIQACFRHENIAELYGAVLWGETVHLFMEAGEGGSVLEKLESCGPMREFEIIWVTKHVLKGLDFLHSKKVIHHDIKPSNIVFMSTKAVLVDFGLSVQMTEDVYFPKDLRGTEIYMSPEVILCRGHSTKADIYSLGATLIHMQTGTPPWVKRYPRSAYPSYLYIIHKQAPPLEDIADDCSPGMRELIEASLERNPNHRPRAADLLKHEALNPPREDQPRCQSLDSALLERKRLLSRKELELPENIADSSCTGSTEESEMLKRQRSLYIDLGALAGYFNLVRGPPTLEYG
Chain of Tyrosine-protein kinase Lck (Homo sapiens) (P06239 2-509 limits assumed): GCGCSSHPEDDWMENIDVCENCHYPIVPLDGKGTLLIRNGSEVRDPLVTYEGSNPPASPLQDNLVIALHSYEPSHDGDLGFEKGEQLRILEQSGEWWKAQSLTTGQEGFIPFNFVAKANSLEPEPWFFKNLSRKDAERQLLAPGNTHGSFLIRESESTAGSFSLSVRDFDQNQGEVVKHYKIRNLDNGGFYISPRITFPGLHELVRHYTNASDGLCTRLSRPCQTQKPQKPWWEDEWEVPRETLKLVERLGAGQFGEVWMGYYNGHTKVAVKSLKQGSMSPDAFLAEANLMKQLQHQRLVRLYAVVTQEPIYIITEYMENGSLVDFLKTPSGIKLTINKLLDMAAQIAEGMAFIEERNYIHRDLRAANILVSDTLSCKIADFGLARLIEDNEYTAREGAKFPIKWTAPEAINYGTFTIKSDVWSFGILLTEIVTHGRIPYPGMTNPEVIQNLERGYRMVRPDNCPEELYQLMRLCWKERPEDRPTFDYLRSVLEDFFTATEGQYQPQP
Chain of High affinity nerve growth factor receptor (Homo sapiens) (P04629 33-796 limits assumed): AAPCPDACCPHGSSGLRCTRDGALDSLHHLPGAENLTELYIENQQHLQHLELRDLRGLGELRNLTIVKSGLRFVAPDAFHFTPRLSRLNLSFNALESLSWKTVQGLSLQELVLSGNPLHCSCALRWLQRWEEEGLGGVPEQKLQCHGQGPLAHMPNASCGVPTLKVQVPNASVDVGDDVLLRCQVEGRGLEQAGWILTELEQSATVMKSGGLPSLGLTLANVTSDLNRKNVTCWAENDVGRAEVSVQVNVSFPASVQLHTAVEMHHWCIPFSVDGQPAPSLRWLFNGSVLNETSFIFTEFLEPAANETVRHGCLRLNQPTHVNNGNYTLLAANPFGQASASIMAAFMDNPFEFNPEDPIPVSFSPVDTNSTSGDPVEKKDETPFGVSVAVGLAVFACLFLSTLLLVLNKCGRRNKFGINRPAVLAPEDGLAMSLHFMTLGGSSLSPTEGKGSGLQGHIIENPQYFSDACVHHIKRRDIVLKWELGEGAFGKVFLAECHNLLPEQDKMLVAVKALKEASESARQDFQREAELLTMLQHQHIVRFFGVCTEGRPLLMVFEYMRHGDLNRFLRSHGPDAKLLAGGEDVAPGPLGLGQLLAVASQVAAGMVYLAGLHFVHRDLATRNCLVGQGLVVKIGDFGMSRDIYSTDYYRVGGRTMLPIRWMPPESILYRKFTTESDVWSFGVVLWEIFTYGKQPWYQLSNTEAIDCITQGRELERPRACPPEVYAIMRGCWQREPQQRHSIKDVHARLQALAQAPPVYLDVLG
Chain of Serine/threonine-protein kinase 17A (Homo sapiens) (Q9UEE5 whole entry): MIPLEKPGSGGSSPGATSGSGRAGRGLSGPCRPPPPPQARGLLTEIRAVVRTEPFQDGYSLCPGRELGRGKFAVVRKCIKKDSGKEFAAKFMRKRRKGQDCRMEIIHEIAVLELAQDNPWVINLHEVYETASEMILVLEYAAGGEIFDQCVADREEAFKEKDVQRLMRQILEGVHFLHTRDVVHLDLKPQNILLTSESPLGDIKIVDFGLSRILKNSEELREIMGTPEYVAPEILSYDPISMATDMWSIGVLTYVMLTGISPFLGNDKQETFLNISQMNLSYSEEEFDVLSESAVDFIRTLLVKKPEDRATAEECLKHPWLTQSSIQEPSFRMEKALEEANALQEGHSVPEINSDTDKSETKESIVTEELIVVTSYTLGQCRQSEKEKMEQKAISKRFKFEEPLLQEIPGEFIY

COc1cc2oc(-c3cccc(C(=O)Nc4ccc(C)cc4)c3)cc(=O)c2c(OC)c1OC
inhibition at 10 µM (Renal cancer cell line): 72.5%
inhibition [1]: 6.26%
inhibition at 10 µM (HL-60 [2]): 92.7%
inhibition [3]: inactive
inhibition at 10 µM (OVCAR-5): 51.8%
inhibition (HOP-92 [4]): Active
Activity (HT-29 [5]): Active
inhibition [6]: inactive
inhibition at 10 µM (RPMI-8226): 82.6%
Activity (HT-29 [7]): 55.4%
inhibition [8]: inactive
inhibition [9]: inactive
inhibition [10]: 0.26%
Activity (HT-29 [11]): 59.1%
inhibition [12]: 17.2%
inhibition [13]: 3.24%
inhibition [14]: inactive
inhibition [15]: inactive
inhibition [16]: 0.68%
inhibition [17]: 1.99%
inhibition (NCI-H322M): Active
inhibition (EKVX): Active
inhibition [18]: inactive
inhibition [19]: inactive
inhibition [20]: inactive
inhibition at 10 µM (Lung cancer cell line): 66.5%
inhibition (HL-60 [21]): Active
inhibition (MOLT-4): Active
inhibition [22]: 27.1%
inhibition [23]: 2.36%
inhibition [24]: 14.2%
inhibition [25]: inactive
inhibition at 10 µM (ACHN): 55.7%
inhibition [26]: 3.13%

COc1cc2oc(-c3cccc(C(=O)Nc4ccc(Cl)cc4)c3)cc(=O)c2c(OC)c1OC
inhibition at 10 µM (Renal cancer cell line): 82.9%
inhibition (T47D): Active
inhibition at 10 µM (HL-60 [2]): 111%
inhibition at 10 µM (HOP-92 [27]): 87.2%
inhibition (HOP-92 [4]): Active
inhibition at 10 µM (TK-10): 61.4%
inhibition at 10 µM (RPMI-8226): 82.6%
inhibition at 10 µM (NCI-H460): 74.8%
inhibition (NCI-H322M): Active
inhibition (EKVX): Active
inhibition at 10 µM (HOP-62): 87.2%
inhibition at 10 µM (Lung cancer cell line): 61.5%
inhibition (HL-60 [21]): Active
inhibition (MOLT-4): Active
inhibition at 10 µM (ACHN): 61.4%
